Experiment [1] has as its target T1, PAR2 (HT-29 cells, SLIGKV activation) (Homo sapiens, UniProt P55085).
T1 construct: host or cells: HT-29 cells
T1 sequence (P55085 26-397): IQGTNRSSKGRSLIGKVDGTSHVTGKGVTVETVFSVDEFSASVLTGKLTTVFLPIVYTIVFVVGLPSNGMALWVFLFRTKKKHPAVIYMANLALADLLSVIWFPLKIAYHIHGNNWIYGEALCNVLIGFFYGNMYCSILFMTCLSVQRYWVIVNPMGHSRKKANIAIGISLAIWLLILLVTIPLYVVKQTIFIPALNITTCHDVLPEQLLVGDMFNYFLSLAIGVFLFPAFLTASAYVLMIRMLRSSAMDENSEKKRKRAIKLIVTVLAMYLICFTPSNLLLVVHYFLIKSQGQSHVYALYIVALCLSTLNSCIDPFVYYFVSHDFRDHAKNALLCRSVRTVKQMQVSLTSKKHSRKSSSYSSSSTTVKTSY
Nature of the experiment: Ca FLIPR TETRA assay, ANTAGONIST mode, stimulation with 8 μM SLIGKV. Format: cell-based. Conditions: HT-29 cells, antagonist mode, stimulation with 8 μM SLIGKV. A digest of the protocol:
(§1)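 HT-29 cells grown overnight in 1% FBS McCoy's medium were loaded with calcium 5 dye (45 min 37 °C, 15 min r.t.). Compounds were added and Ca2+ read for direct activation, then after 30 min at r.t. cells were stimulated with 8 μM SLIGKV, 1 U/mL thrombin, 3.1 U/mL trypsin or 0.6 μM UTP (final).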

Experiment [2] concerns UTP-stimulated Ca2+ response in HT-29 cells. The experiment in a line: Ca FLIPR TETRA assay, ANTAGONIST mode, stimulation with 0.6 μM UTP. Conditions: Homo sapiens; HT-29 cells, antagonist mode, stimulation with 0.6 μM UTP. Format: cell-based, human. Put shortly: as §1
Experiment [3] deals with Thrombin-stimulated Ca2+ response in HT-29 cells. The experiment in a line: Ca FLIPR TETRA assay, ANTAGONIST mode, stimulation with 1 U/mL Thrombin. It is filed as cell-based, human. Conditions: Homo sapiens; HT-29 cells, antagonist mode, stimulation with 1 U/mL Thrombin. Put shortly:
as §1

Experiment [4] deals with T2, PAR2 (HT-29 cells, trypsin activation) (Homo sapiens, UniProt P55085).
T2 construct: host or cells: HT-29 cells
T2 sequence (P55085 26-397): T1 sequence (P55085 26-397)
The experiment in a line: Ca FLIPR TETRA assay, ANTAGONIST mode, stimulation with 3.1 U/mL trypsin. It is filed as cell-based. Conditions: HT-29 cells, antagonist mode, stimulation with 3.1 U/mL trypsin. A digest of the protocol:
as §1

The structures appear in SMILES notation. Bounds are passed on as bounds.

Regarding `Cc1cc(-c2cc(C(C)C)c3nc(C(=O)N4CCN(C(=O)c5ccn[nH]5)CC4(C)C)cn3n2)ccc1F` [Compound I-261], the IC50 (as a rule, the concentration that gives 50% inhibition) in experiment [1] is 3.5 nM; in experiment [2], greater than 1000 nM; in experiment [3], greater than 1000 nM; in experiment [4] it was 6.5 nM.

In the case of `Cc1cc(-c2cc(C(C)C)c3nc(C(=O)N4CCN(C(=O)c5ccncn5)CC4(C)C)cn3n2)ccc1F` [Compound I-262], the IC50 in experiment [1] was 9.2 nM; in experiment [2] it was greater than 1000 nM; in experiment [3] it was greater than 1000 nM; in experiment [4] it was 14.5 nM.

As for `Cc1ccc(-c2cc(C(C)C)c3nc(C(=O)N4CCN(C(=O)[C@H]5C[C@@](O)(C(F)(F)F)C5)CC4(C)C)cn3n2)cc1` [Compound I-263], the IC50 in experiment [1] is 6.5 nM; in experiment [2], greater than 1000 nM; in experiment [3], 220 nM; in experiment [4] it was 7.2 nM.

Turning to `CC(C)c1cc(-c2ccc(F)c(F)c2)nn2cc(C(=O)N3CCN(C(=O)[C@H]4C[C@@](O)(C(F)(F)F)C4)CC3(C)C)nc12` [Compound I-264], the IC50 in experiment [1] is 3.1 nM; in experiment [2], greater than 1000 nM; in experiment [3], greater than 1000 nM; in experiment [4] it was 5.2 nM.

On to `Cc1cc(-c2cc(C(C)C)c3nc(C(=O)N4CCN(C(=O)[C@H]5C[C@@](O)(C(F)(F)F)C5)CC4(C)C)cn3n2)ccc1F` [Compound I-265], for which the IC50 in experiment [1] is 3.9 nM; in experiment [2], greater than 1000 nM; in experiment [3] it was 570 nM; in experiment [4], 5.6 nM.

`CC(C)(C)c1cc(-c2ccc(F)cc2)nn2cc(C(=O)N3CCN(c4cscn4)C(=O)C3(C)C)nc12` [Compound I-266]: the IC50 in experiment [1] is 0.6 nM; in experiment [2] it was greater than 1000 nM; in experiment [3], greater than 100 nM; in experiment [4], 1 nM.

Turning to `CC(C)(C)c1cc(-c2ccc(F)cc2)nn2cc(C(=O)N3CCN(CC#N)C(=O)C3(C)C)nc12` [Compound I-267], the IC50 is 1.4 nM in experiment [1], greater than 1000 nM in experiment [2], 560 nM in experiment [3] and 2 nM in experiment [4].

On to `CC1(C)CN(C(=O)c2ccncn2)CCN1C(=O)c1cn2nc(-c3ccc(F)cc3)cc(C(F)(F)F)c2n1` [Compound I-268], for which the IC50 was 64.5 nM in experiment [1], greater than 1000 nM in experiment [2], greater than 1000 nM in experiment [3] and 104 nM in experiment [4].

On to `CC1(C)CN(C(=O)c2nc[nH]n2)CCN1C(=O)c1cn2nc(-c3ccc(F)cc3)cc(C(F)(F)F)c2n1` [Compound I-269], for which the IC50 is 90.5 nM in experiment [1], greater than 1000 nM in experiment [2], greater than 1000 nM in experiment [3] and 120 nM in experiment [4].

For `CC1(C)CN(C(=O)c2ncc[nH]2)CCN1C(=O)c1cn2nc(-c3ccc(F)cc3)cc(C(F)(F)F)c2n1` [Compound I-270], the IC50 in experiment [1] was 47.5 nM; in experiment [2] it was greater than 1000 nM; in experiment [3], greater than 1000 nM; in experiment [4] it was 71 nM.

For `CC1(C)CN(C(=O)c2ccn[nH]2)CCN1C(=O)c1cn2nc(-c3ccc(F)cc3)cc(C(F)(F)F)c2n1` [Compound I-271], the IC50 in experiment [1] was 13.3 nM; in experiment [2], greater than 1000 nM; in experiment [3], greater than 1000 nM; in experiment [4], 30.3 nM.

For `CC1(C)CN(C(=O)C2CC(O)(C(F)(F)F)C2)CCN1C(=O)c1cn2nc(-c3ccc(F)cc3)cc(C(F)(F)F)c2n1` (stereo not shown) [Compound I-272], the IC50 is 1.5 nM in experiment [1], greater than 1000 nM in experiment [2], greater than 1000 nM in experiment [3] and 2.5 nM in experiment [4].

Regarding `CC(C)c1cc(-c2ccc(C(F)(F)F)c(F)c2)nn2cc(C(=O)N3CCNC(=O)C3(C)C)nc12` [Compound I-273], the IC50 in experiment [1] is 0.7 nM; in experiment [2], greater than 1000 nM; in experiment [3], greater than 1000 nM; in experiment [4], 1.2 nM.

As for `CC(C)c1cc(-c2ccc(F)cc2)nn2cc(C(=O)N3CCN(C#N)C(=O)C3(C)C)nc12` [Compound I-274], the IC50 is 2.6 nM in experiment [1], greater than 1000 nM in experiment [2], greater than 1000 nM in experiment [3] and 4.6 nM in experiment [4].

In the case of `CC(C)c1cc(-c2ccc(F)cc2)nn2cc(C(=O)N3CCN(c4nn[nH]n4)C(=O)C3(C)C)nc12` [Compound I-275], the IC50 in experiment [1] is 9.8 nM; in experiment [2], greater than 1000 nM; in experiment [3], greater than 1000 nM; in experiment [4], 16.7 nM.

On to `CC(C)c1cc(-c2ccc(C(F)(F)F)c(F)c2)nn2cc(C(=O)N3CCN(C(=O)[C@H]4C[C@](O)(C(F)(F)F)C4)CC3(C)C)nc12` [Compound I-276], for which the IC50 in experiment [1] was 0.4 nM; in experiment [2], greater than 1000 nM; in experiment [3], greater than 1000 nM; in experiment [4] it was 0.4 nM.

With `CC(C)c1cc(-c2ccc(C(F)(F)F)c(F)c2)nn2cc(C(=O)N3CCN(C(=O)c4ccn[nH]4)CC3(C)C)nc12` [Compound I-277], the IC50 in experiment [1] is 1.3 nM; in experiment [2], greater than 1000 nM; in experiment [3] it was greater than 1000 nM; in experiment [4] it was 1.3 nM.

`CC(C)c1cc(-c2ccc(C(F)(F)F)c(F)c2)nn2cc(C(=O)N3CCN(C(=O)c4ccncn4)CC3(C)C)nc12` [Compound I-278]: the half-inhibitory concentration (IC50) in experiment [1] was 2.1 nM; in experiment [2], greater than 1000 nM; in experiment [3], greater than 1000 nM; in experiment [4] it was 2.8 nM.

Regarding `CC(C)c1cc(-c2ccc(C(F)(F)F)cc2)nn2cc(C(=O)N3CCN(C(=O)c4nc[nH]n4)CC3(C)C)nc12` [Compound I-279], the IC50 is 3.3 nM in experiment [1], greater than 1000 nM in experiment [2], greater than 1000 nM in experiment [3] and 4.6 nM in experiment [4].

With `Cc1nnc(C(=O)N2CCN(C(=O)c3cn4nc(-c5ccc(C(F)(F)F)cc5)cc(C(C)C)c4n3)C(C)(C)C2)o1` [Compound I-280], the IC50 in experiment [1] is 9.6 nM; in experiment [2], greater than 1000 nM; in experiment [3] it was greater than 1000 nM; in experiment [4] it was 6 nM.

For `CC(C)c1cc(-c2ccc(C(F)(F)F)cc2)nn2cc(C(=O)N3CCN(C(=O)c4ccccn4)CC3(C)C)nc12` [Compound I-281], the IC50 in experiment [1] is 2.5 nM; in experiment [2] it was greater than 1000 nM; in experiment [3] it was greater than 1000 nM; in experiment [4], 3.6 nM.

With `CC(C)c1cc(-c2ccc(C(F)(F)F)cc2)nn2cc(C(=O)N3CCN(C(=O)c4cccnn4)CC3(C)C)nc12` [Compound I-282], the IC50 in experiment [1] was 16 nM; in experiment [2], greater than 1000 nM; in experiment [3], greater than 1000 nM; in experiment [4] it was 14.2 nM.

For `CC(C)(C)c1cc(-c2ccc(F)cc2)nn2cc(C(=O)N3CCN(C(=O)c4ccccn4)CC3(C)C)nc12` [Compound I-284], the IC50 in experiment [1] was 1 nM; in experiment [2], greater than 1000 nM; in experiment [3] it was greater than 1000 nM; in experiment [4] it was 1.4 nM.

With `CC(C)(C)c1cc(-c2ccc(F)cc2)nn2cc(C(=O)N3CCN(C(=O)c4ncccn4)CC3(C)C)nc12` [Compound I-285], the IC50 in experiment [1] is 1.8 nM; in experiment [2] it was greater than 1000 nM; in experiment [3], 650 nM; in experiment [4], 2.6 nM.

For the molecule `CC(C)(C)c1cc(-c2ccc(F)cc2)nn2cc(C(=O)N3CCN(C(=O)c4ccncc4)CC3(C)C)nc12` [Compound I-286], the IC50 is 2.7 nM in experiment [1], greater than 1000 nM in experiment [2], 840 nM in experiment [3] and 3.9 nM in experiment [4].

Take `CC(C)(C)c1cc(-c2ccc(F)cc2)nn2cc(C(=O)N3CCN(C(=O)c4cccnc4)CC3(C)C)nc12` [Compound I-287]: the IC50 is 2 nM in experiment [1], 980 nM in experiment [2], 630 nM in experiment [3] and 2.8 nM in experiment [4].

On to `CC(C)(O)CC(=O)N1CCN(C(=O)c2cn3nc(-c4ccc(F)cc4)cc(C(C)(C)C)c3n2)C(C)(C)C1` [Compound I-289], for which the IC50 in experiment [1] stood at 1.5 nM; in experiment [2], 540 nM; in experiment [3] it was 430 nM; in experiment [4] it was 2.5 nM.

As to `Cc1cn[nH]c1C(=O)N1CCN(C(=O)c2cn3nc(-c4ccc(F)cc4)cc(C(C)(C)C)c3n2)C(C)(C)C1` [Compound I-290], the IC50 in experiment [1] is 3.4 nM; in experiment [2], 730 nM; in experiment [3] it was 530 nM; in experiment [4], 3.1 nM.

Regarding `Cc1n[nH]cc1C(=O)N1CCN(C(=O)c2cn3nc(-c4ccc(F)cc4)cc(C(C)(C)C)c3n2)C(C)(C)C1` [Compound I-292], the IC50 was 2.4 nM in experiment [1], greater than 1000 nM in experiment [2], greater than 1000 nM in experiment [3] and 2.2 nM in experiment [4].

`CC(C)c1cc(-c2ccc(C(F)F)cc2)nn2cc(C(=O)N3CCN(C(=O)c4ccn[nH]4)CC3(C)C)nc12` [Compound I-293]: the IC50 in experiment [1] was 6.6 nM; in experiment [2], greater than 1000 nM; in experiment [3], greater than 1000 nM; in experiment [4] it was 9.4 nM.

With `CC(C)c1cc(-c2ccc(C(F)F)cc2)nn2cc(C(=O)N3CCN(C(=O)c4nc[nH]n4)CC3(C)C)nc12` [Compound I-294], the IC50 in experiment [1] was 8.8 nM; in experiment [2], greater than 1000 nM; in experiment [3], greater than 1000 nM; in experiment [4], 13.7 nM.
